Test results as given in patent US10131652B2, “Pyrimidinyloxy benzene derivatives as herbicides” (E. I. DU PONT DE NEMOURS AND COMPANY, priority 2014, dated 2018).
Read-outs that look alike come from different tables or passages of the source.

Key:
Format in all cases: in vivo
[1] = tested on: Brazilian crabgrass (Digitaria horizontalis); experiment: Test F pre-/postemergence plant response; settings: Digitaria horizontalis, scale 0 to 100, read-out: Plant response rating, Crabgrass, Brazil
Summary of the method: (§1)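 Visual rating versus untreated controls, 0–100 scale (0 = no effect, 100 = complete control), taken 14–21 d after treatment in greenhouse. Pre: seeds planted in silt loam, soil treated. Post: plants 2–18 cm, 1–4 leaves. Compound formulated in non-phytotoxic solvent plus surfactant.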

[2] = tested on: wild poinsettia (Euphorbia heterophylla); experiment: Test F pre-/postemergence plant response; settings: Euphorbia heterophylla, scale 0 to 100, read-out: Plant response rating, Poinsettia, Wild
Summary of the method: as §1

[3] = tested on: johnsongrass (Sorghum halepense); experiment: Test F pre-/postemergence plant response; settings: Sorghum halepense, pre-emergence, scale 0 to 100, read-out: Plant response rating, Johnsongrass
Summary of the method: as §1

[4] = tested on: green foxtail (Setaria viridis); experiment: Test F pre-/postemergence plant response; settings: Setaria viridis, pre-emergence, scale 0 to 100, read-out: Plant response rating, Foxtail, Green
Summary of the method: as §1

wild oat (Avena fatua) = experiment: Test E pre-/postemergence plant response; settings: scale 0 to 100, read-out: Plant response rating, Oat, Wild; for pest or weed control at 16 g/ha: 16 g ai/ha; for pest or weed control at 31 g/ha: 31 g ai/ha; for pest or weed control at 62 g/ha: 62 g ai/ha; for pest or weed control at 125 g/ha: 125 g ai/ha
Text: (§2) Seeds of plant species selected from bluegrass (annual bluegrass, Poa annua), blackgrass (Alopecurus myosuroides), canarygrass (Phalaris minor), chickweed (common chickweed, Stellaria media), galium (catchweed bedstraw, Galium aparine), downy bromegrass (Bromus tectorum), field poppy (Papaver rhoeas), field violet (Viola arvensis), green foxtail (Setaria viridis), deadnettle (henbit deadnettle, Lamium amplexicaule), Italian ryegrass (Lolium multiflorum), kochia (Kochia scoparia), lambsquarters (Chenopodium album), oilseed rape (Brassica napus), pigweed (Amaranthus retroflexus), Russian thistle (Salsola iberica), chamomile (scentless chamomile, Matricaria inodora), speedwell (bird's-eye speedwell, Veronica persica), spring barley (Hordeum vulgare), spring wheat (Triticum aestivum), wild buckwheat (Polygonum convolvulus), wild mustard (Sinapis arvensis), wild oat (Avena fatua), wild radish (Raphanus raphanistrum), windgrass (Apera spica-venti), winter barley (Hordeum vulgare), and winter wheat (Triticum aestivum) were planted into a silt loam soil and treated preemergence with test chemicals formulated in a non-phytotoxic solvent mixture which included a surfactant. At the same time, these species were planted in pots containing Redi-Earth® planting medium (Scotts Company, 14111 Scottslawn Road, Marysville, Ohio 43041) comprising spaghnum peat moss, vermiculite, wetting agent and starter nutrients and treated with postemergence applications of the test chemicals formulated in the same manner. Plants ranged in height from 2 to 18 cm (1- to 4-leaf stage).
(§3) Treated plants and controls were maintained in a controlled growth environment for 7 to 21 days after which time all species were compared to controls and visually evaluated. Plant response ratings, summarized in Table E, are based on a scale of 0 to 100 where 0 is no effect and 100 is complete control. A dash (-) response means no test result.

kochia (Kochia scoparia) = experiment: Test E pre-/postemergence plant response; settings: Bassia scoparia, scale 0 to 100, read-out: Plant response rating, Kochia; for pest or weed control at 16 g/ha: 16 g ai/ha; for pest or weed control at 31 g/ha: 31 g ai/ha; for pest or weed control at 62 g/ha: 62 g ai/ha; for pest or weed control at 125 g/ha: 125 g ai/ha
Text: as §2, §3

[5] = tested on: oilseed rape (Brassica napus); experiment: Test E pre-/postemergence plant response; settings: scale 0 to 100, read-out: Plant response rating, Oilseed Rape; for plant injury at 16 g/ha: 16 g ai/ha; for plant injury at 31 g/ha: 31 g ai/ha; for plant injury at 62 g/ha: 62 g ai/ha; for plant injury at 125 g/ha: 125 g ai/ha
Text: as §2, §3

[6] = tested on: blackgrass (Alopecurus myosuroides); experiment: Test E pre-/postemergence plant response; settings: scale 0 to 100, read-out: Plant response rating, Blackgrass; for pest or weed control at 16 g/ha: 16 g ai/ha; for pest or weed control at 31 g/ha: 31 g ai/ha; for pest or weed control at 62 g/ha: 62 g ai/ha; for pest or weed control at 125 g/ha: 125 g ai/ha
Text: as §2, §3

[7] = tested on: chamomile (scentless chamomile, Matricaria inodora); experiment: Test E pre-/postemergence plant response; settings: Tripleurospermum inodorum, scale 0 to 100, read-out: Plant response rating, Chamomile; for pest or weed control at 16 g/ha: 16 g ai/ha; for pest or weed control at 31 g/ha: 31 g ai/ha; for pest or weed control at 62 g/ha: 62 g ai/ha; for pest or weed control at 125 g/ha: 125 g ai/ha
Text: as §2, §3

[8] = post-emergence, 8 g ai/ha Postemergence
[9] = post-emergence, 16 g ai/ha Postemergence
[10] = post-emergence, 31 g ai/ha Postemergence
[11] = post-emergence, 62 g ai/ha Postemergence
[12] = post-emergence, 125 g ai/ha Postemergence
[13] = pre-emergence, 8 g ai/ha Preemergence
[14] = pre-emergence, 16 g ai/ha Preemergence
[15] = pre-emergence, 31 g ai/ha Preemergence
[16] = pre-emergence, 125 g ai/ha Preemergence

## FC(F)c1cc(-c2ccccc2Oc2ncc(Cl)cn2)no1 [Compound 35, 5-chloro-2-[2-[5-(difluoromethyl)-3-isoxazolyl]phenoxy]pyrimidine]
[1]; [8]
  pest or weed control at 8 g/ha: 10%
[1]; [9]
  pest or weed control at 16 g/ha: 20%
[1]; [10]
  pest or weed control at 31 g/ha: 30%
[1]; [11]
  pest or weed control at 62 g/ha: 35%
[1]; [12]
  pest or weed control at 125 g/ha: 40%
[1]; [13]
  pest or weed control at 8 g/ha: 0%
[1]; [14]
  pest or weed control at 16 g/ha: 95%
[1]; [15]
  pest or weed control at 31 g/ha: 98%
[1]; pre-emergence, 62 g ai/ha Preemergence
  pest or weed control at 62 g/ha: 100%
[1]; [16]
  pest or weed control at 125 g/ha: 100%
[2]; [8]
  pest or weed control at 8 g/ha: 30%
[2]; [9]
  pest or weed control at 16 g/ha: 40%
[2]; [10]
  pest or weed control at 31 g/ha: 50%
[2]; [11]
  pest or weed control at 62 g/ha: 50%
[2]; [12]
  pest or weed control at 125 g/ha: 80%
[2]; [13]
  pest or weed control at 8 g/ha: 20%
[2]; [14]
  pest or weed control at 16 g/ha: 30%
[2]; [15]
  pest or weed control at 31 g/ha: 35%
[2]; [16]
  pest or weed control at 125 g/ha: 40%
[2]; pre-emergence, Preemergence
  pest or weed control at 62 g/ha: 70%
[3]; 8 g ai/ha Preemergence
  pest or weed control at 8 g/ha: 0%
[3]; 16 g ai/ha Preemergence
  pest or weed control at 16 g/ha: 0%
[3]; 31 g ai/ha Preemergence
  pest or weed control at 31 g/ha: 0%
[3]; 125 g ai/ha Preemergence
  pest or weed control at 125 g/ha: 65%
[3]; Preemergence
  pest or weed control at 62 g/ha: 35%
[4]; 8 g ai/ha Preemergence
  pest or weed control at 8 g/ha: 0%
[4]; 16 g ai/ha, Preemergence
  pest or weed control at 16 g/ha: 0%
[4]; 31 g ai/ha, Preemergence
  pest or weed control at 31 g/ha: 30%
[4]; 125 g ai/ha, Preemergence
  pest or weed control at 125 g/ha: 98%
[4]; Preemergence
  pest or weed control at 62 g/ha: 75%
Wild oat (Avena fatua); post-emergence, Postemergence
  pest or weed control at 16 g/ha: 10%
  pest or weed control at 31 g/ha: 15%
  pest or weed control at 62 g/ha: 35%
  pest or weed control at 125 g/ha: 60%
Wild oat (Avena fatua); pre-emergence, Preemergence
  pest or weed control at 16 g/ha: 0%
  pest or weed control at 31 g/ha: 0%
  pest or weed control at 62 g/ha: 45%
  pest or weed control at 125 g/ha: 35%
Kochia (Kochia scoparia); post-emergence, Postemergence
  pest or weed control at 16 g/ha: 75%
  pest or weed control at 31 g/ha: 75%
  pest or weed control at 62 g/ha: 80%
  pest or weed control at 125 g/ha: 90%
Kochia (Kochia scoparia); pre-emergence, Preemergence
  pest or weed control at 16 g/ha: 25%
  pest or weed control at 31 g/ha: 65%
  pest or weed control at 62 g/ha: 100%
  pest or weed control at 125 g/ha: 100%
[5]; post-emergence, Postemergence
  plant injury at 16 g/ha: 70%
  plant injury at 31 g/ha: 80%
  plant injury at 62 g/ha: 95%
  plant injury at 125 g/ha: 100%
[5]; pre-emergence, Preemergence
  plant injury at 16 g/ha: 60%
  plant injury at 31 g/ha: 95%
  plant injury at 62 g/ha: 100%
  plant injury at 125 g/ha: 100%
[6]; post-emergence, Postemergence
  pest or weed control at 16 g/ha: 20%
  pest or weed control at 31 g/ha: 35%
  pest or weed control at 62 g/ha: 55%
  pest or weed control at 125 g/ha: 60%
[6]; pre-emergence, Preemergence
  pest or weed control at 16 g/ha: 30%
  pest or weed control at 31 g/ha: 60%
  pest or weed control at 62 g/ha: 65%
  pest or weed control at 125 g/ha: 95%
[7]; post-emergence, Postemergence
  pest or weed control at 16 g/ha: 5%
  pest or weed control at 31 g/ha: 5%
  pest or weed control at 62 g/ha: 5%
  pest or weed control at 125 g/ha: 10%
[7]; pre-emergence, Preemergence
  pest or weed control at 16 g/ha: 5%
  pest or weed control at 31 g/ha: 10%
  pest or weed control at 62 g/ha: 70%
  pest or weed control at 125 g/ha: 70%
